Key:
[1] = target: Adenosine receptor A2a (Homo sapiens) (UniProt P29274); assay: Activity against A2A/HU in the Eurofins SafetyScreen44 (BI); details: Compound concentration 10.0 uM
[2] = target: Alpha-1B adrenergic receptor (Rattus norvegicus) (UniProt P15823); assay: Activity against ALPHA1B/R in the Eurofins SafetyScreen44 (BI) by Radioactive Assay; details: Compound concentration 10.0 uM
[3] = target: Glutamate NMDA receptor (Rattus norvegicus) (UniProt P35439+Q00959+Q00960+Q00961+Q62645+Q8VHN2+Q9R1M7); assay: Agonist activity in the Eurofins SafetyScreen44 (BI) against NMDAAGSI/RA by Radioactive Assay; assay type: protein-complex assay; details: Compound concentration 10.0 uM
[4] = target: Histamine H1 receptor (Homo sapiens) (UniProt P35367); assay: Activity against H1/H in the Eurofins SafetyScreen44 (BI) by Radioactive Assay; details: Compound concentration 10.0 uM
[5] = target: Muscarinic acetylcholine receptor M3 (Homo sapiens) (UniProt P20309); assay: Activity against M3/HU in the Eurofins SafetyScreen44 (BI) by Radioactive Assay; details: Compound concentration 10.0 uM
[6] = target: D(2) dopamine receptor (Homo sapiens) (UniProt P14416); assay: Activity against D2S/HU in the Eurofins SafetyScreen44 (BI) by Radioligand Binding; details: Compound concentration 10.0 uM
Chain of D(2) dopamine receptor (Homo sapiens) (P14416 whole entry): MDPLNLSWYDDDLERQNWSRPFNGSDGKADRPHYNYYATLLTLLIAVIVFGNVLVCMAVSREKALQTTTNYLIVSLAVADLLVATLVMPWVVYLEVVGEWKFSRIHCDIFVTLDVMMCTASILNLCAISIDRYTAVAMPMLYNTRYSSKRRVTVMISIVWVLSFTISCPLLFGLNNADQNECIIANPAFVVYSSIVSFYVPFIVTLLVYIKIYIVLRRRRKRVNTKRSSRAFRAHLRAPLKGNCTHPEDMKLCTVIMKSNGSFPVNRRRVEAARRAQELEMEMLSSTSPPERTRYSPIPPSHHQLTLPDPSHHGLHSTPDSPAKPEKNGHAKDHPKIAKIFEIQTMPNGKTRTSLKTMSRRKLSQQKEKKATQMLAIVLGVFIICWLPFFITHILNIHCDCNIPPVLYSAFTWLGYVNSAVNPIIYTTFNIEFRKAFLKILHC

[7] = target: Endothelin receptor type B (Homo sapiens) (UniProt P24530); assay: Activity against ETB/HUM in the Eurofins SafetyScreen44 (BI) by Radioactive Assay; details: Compound concentration 10.0 uM
[8] = target: Protein kinase C alpha type (Mus musculus) (UniProt P20444); assay: Inhibitor of PHORBOLE/M in the Eurofins SafetyScreen44 (BI) by Radioactive Assay; details: Compound concentration 10.0 uM
[9] = target: 5-hydroxytryptamine receptor 3A (Homo sapiens) (UniProt P46098); assay: Activity against 5HT3/HU in the Eurofins SafetyScreen44 (BI) by Others; details: Compound concentration 10.0 uM
[10] = target: Glutamate receptor ionotropic, NMDA 1 (Rattus norvegicus) (UniProt P35439); assay: Inhibitor of NMDAGLSI/RA in the Eurofins SafetyScreen44 (BI) by Scintillation counting; details: Compound concentration 10.0 uM
[11] = target: Muscarinic acetylcholine receptor M2 (Homo sapiens) (UniProt P08172); assay: Activity against M2/HU in the Eurofins SafetyScreen44 (BI) by Radioactive Assay; details: Compound concentration 10.0 uM
[12] = target: Prostaglandin E2 receptor EP4 subtype (Homo sapiens) (UniProt P35408); assay: Activity against EP4/H in the Eurofins SafetyScreen44 (BI) by Radioactive Assay; details: Compound concentration 10.0 uM
[13] = target: Sigma intracellular receptor 2 (Rattus norvegicus) (UniProt Q5U3Y7); assay: Activity against SIGMA2/R in the Eurofins SafetyScreen44 (BI) by Radioactive Assay; details: Compound concentration 10.0 uM
Chain of Sigma intracellular receptor 2 (Rattus norvegicus) (Q5U3Y7 whole entry): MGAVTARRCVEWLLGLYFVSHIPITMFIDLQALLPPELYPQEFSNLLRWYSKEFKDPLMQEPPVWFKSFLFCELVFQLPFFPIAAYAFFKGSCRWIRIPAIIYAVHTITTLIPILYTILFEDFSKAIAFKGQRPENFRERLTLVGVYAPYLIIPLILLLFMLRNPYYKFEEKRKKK

[14] = target: D(3) dopamine receptor (Homo sapiens) (UniProt P35462); assay: Activity against D3/HU in the Eurofins SafetyScreen44 (BI) by Radioactive Assay; details: Compound concentration 10.0 uM
Chain of D(3) dopamine receptor (Homo sapiens) (P35462 whole entry): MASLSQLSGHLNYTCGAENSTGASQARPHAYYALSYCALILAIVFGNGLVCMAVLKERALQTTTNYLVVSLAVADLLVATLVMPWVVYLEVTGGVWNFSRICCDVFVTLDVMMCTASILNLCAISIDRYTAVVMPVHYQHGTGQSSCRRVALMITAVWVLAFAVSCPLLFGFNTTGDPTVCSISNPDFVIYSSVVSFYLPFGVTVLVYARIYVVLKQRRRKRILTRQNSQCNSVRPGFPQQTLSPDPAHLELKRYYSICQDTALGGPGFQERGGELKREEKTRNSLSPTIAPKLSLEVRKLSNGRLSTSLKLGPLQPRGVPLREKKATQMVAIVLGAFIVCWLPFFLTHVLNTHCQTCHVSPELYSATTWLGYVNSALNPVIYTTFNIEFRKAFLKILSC

[15] = target: Beta-1 adrenergic receptor (Homo sapiens) (UniProt P08588); assay: Activity against BETA1/HU in the Eurofins SafetyScreen44 (BI) by Radioactive Assay; details: Compound concentration 10.0 uM
Chain of Beta-1 adrenergic receptor (Homo sapiens) (P08588 whole entry, looked up): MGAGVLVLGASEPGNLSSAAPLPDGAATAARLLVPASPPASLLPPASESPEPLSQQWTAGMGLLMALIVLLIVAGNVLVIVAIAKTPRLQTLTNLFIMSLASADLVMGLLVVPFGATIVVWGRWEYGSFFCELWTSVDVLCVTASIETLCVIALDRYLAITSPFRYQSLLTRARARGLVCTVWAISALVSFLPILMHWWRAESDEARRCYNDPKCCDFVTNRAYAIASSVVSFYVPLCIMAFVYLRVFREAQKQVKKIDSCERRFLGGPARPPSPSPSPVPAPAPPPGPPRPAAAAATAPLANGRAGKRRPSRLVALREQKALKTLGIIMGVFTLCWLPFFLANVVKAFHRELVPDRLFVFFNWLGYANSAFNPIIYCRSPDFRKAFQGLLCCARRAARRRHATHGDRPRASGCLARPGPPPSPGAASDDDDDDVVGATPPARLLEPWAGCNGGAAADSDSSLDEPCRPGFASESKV

[16] = target: Sodium-dependent dopamine transporter (Homo sapiens) (UniProt Q01959); assay: Inhibitor of DATRANS/H in the Eurofins SafetyScreen44 (BI) by Radioactive Assay; details: Compound concentration 10.0 uM
Chain of Sodium-dependent dopamine transporter (Homo sapiens) (Q01959 whole entry): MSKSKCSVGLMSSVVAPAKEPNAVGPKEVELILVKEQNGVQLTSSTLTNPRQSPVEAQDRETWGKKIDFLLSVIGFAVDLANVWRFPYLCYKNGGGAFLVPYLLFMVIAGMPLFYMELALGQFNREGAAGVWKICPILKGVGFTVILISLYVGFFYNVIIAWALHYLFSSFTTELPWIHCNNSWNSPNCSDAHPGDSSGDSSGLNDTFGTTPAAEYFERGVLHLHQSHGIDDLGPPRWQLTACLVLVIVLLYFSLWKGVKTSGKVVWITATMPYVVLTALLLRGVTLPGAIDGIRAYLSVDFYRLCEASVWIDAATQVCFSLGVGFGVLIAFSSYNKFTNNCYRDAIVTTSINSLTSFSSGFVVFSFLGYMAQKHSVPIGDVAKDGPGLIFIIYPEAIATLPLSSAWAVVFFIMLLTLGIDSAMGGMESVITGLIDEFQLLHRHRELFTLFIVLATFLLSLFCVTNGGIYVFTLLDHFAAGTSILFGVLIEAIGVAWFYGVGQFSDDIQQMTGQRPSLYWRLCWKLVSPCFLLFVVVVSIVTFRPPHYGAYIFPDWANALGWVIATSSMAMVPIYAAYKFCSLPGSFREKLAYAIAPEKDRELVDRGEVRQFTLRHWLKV

[17] = target: L-type calcium channel, Cav1.2 alpha-1C (CA+/DILSI/RA) (Rattus norvegicus, UniProt P22002); assay: Activity against CA+/DILSI/RA in the Eurofins SafetyScreen44 (BI) by Radioactive Assay; details: compound concentration 10 uM, read-out: % Ctrl
[18] = target: Delta-type opioid receptor (Homo sapiens) (UniProt P41143); assay: Activity against DELTA/HU in the Eurofins SafetyScreen44 (BI) by Radioactive Assay; details: Compound concentration 10.0 uM
[19] = target: D(4) dopamine receptor (Homo sapiens) (UniProt P21917); assay: Activity against D4.2/H in the Eurofins SafetyScreen44 (BI) by Radioactive Assay; details: Compound concentration 10.0 uM
[20] = target: Histamine H2 receptor (Homo sapiens) (UniProt P25021); assay: Activity against H2/H in the Eurofins SafetyScreen44 (BI) by Radioactive Assay; details: Compound concentration 10.0 uM
Chain of Histamine H2 receptor (Homo sapiens) (P25021 whole entry): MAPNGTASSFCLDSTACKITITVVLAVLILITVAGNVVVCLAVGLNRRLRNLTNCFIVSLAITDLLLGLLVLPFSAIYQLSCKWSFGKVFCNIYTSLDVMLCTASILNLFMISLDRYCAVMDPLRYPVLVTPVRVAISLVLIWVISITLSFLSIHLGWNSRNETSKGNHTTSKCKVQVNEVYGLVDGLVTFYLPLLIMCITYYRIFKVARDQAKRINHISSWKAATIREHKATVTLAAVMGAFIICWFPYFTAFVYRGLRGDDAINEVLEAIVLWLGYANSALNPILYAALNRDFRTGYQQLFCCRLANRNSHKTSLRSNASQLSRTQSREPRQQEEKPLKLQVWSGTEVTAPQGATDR

[21] = target: Sigma non-opioid intracellular receptor 1 (Homo sapiens) (UniProt Q99720); assay: Activity against SIGMA1/HU in the Eurofins SafetyScreen44 (BI) by Radioactive Assay; details: Compound concentration 10.0 uM
[22] = target: Platelet-activating factor receptor (Homo sapiens) (UniProt P25105); assay: Activity against PAF/H in the Eurofins SafetyScreen44 (BI) by Radioactive Assay; details: Compound concentration 10.0 uM
[23] = target: Melatonin receptor type 1A (Homo sapiens) (UniProt P48039); assay: Activity against MT1/H in the Eurofins SafetyScreen44 (BI) by Radioactive Assay; details: Compound concentration 10.0 uM
[24] = target: Androgen receptor (Rattus norvegicus) (UniProt P15207); assay: Activity against TESTOST/RA in the Eurofins SafetyScreen44 (BI) by Others; details: Compound concentration 10.0 uM
[25] = target: D(1A) dopamine receptor (Homo sapiens) (UniProt P21728); assay: Activity against D1/HU in the Eurofins SafetyScreen44 (BI) by Radioactive Assay; details: Compound concentration 10.0 uM
Chain of D(1A) dopamine receptor (Homo sapiens) (P21728 whole entry): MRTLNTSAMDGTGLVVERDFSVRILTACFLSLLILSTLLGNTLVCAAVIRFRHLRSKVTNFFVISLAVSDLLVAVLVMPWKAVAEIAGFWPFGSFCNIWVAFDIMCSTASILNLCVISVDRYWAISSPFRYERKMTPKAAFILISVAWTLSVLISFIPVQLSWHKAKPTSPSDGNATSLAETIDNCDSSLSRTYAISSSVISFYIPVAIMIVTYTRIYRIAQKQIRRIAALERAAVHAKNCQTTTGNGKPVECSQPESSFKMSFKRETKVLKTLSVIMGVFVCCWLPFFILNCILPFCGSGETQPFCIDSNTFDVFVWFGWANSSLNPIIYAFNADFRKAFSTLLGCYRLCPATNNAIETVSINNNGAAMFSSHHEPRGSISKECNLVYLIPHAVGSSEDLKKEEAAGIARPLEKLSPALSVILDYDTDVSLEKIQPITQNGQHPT

[26] = target: Neuropeptide Y receptor type 2 (Homo sapiens) (UniProt P49146); assay: Activity against Y2/HU in the Eurofins SafetyScreen44 (BI) by Radioactive Assay; details: Compound concentration 10.0 uM
Chain of Neuropeptide Y receptor type 2 (Homo sapiens) (P49146 whole entry): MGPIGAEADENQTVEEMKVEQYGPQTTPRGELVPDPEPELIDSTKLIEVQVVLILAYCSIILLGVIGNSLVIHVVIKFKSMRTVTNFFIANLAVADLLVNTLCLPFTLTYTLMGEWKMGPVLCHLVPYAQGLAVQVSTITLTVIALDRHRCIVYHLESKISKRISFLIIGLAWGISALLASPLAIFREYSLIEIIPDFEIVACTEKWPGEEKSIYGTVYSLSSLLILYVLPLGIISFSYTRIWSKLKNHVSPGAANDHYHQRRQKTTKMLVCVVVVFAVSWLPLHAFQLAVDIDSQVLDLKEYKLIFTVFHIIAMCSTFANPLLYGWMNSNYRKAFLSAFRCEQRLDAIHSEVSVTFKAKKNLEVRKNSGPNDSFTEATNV

[27] = target: Glutamate receptor ionotropic, kainate 1 (Rattus norvegicus) (UniProt P22756); assay: Activity against KAINATE/R in the Eurofins SafetyScreen44 (BI) by Radioactive Assay; details: Compound concentration 10.0 uM
[28] = target: Alpha-2A adrenergic receptor (Homo sapiens) (UniProt P08913); assay: Activity against ALPHA2A/H in the Eurofins SafetyScreen44 (BI) by Radioactive Assay; details: Compound concentration 10.0 uM
[29] = target: Gamma-aminobutyric acid receptor subunit alpha-1 (Rattus norvegicus) (UniProt P62813); assay: Activity against GABAA MUSCIMOL CENT in the Eurofins SafetyScreen44 (BI) by Scintillation counting; details: Compound concentration 10.0 uM
Chain of Gamma-aminobutyric acid receptor subunit alpha-1 (Rattus norvegicus) (P62813 whole entry): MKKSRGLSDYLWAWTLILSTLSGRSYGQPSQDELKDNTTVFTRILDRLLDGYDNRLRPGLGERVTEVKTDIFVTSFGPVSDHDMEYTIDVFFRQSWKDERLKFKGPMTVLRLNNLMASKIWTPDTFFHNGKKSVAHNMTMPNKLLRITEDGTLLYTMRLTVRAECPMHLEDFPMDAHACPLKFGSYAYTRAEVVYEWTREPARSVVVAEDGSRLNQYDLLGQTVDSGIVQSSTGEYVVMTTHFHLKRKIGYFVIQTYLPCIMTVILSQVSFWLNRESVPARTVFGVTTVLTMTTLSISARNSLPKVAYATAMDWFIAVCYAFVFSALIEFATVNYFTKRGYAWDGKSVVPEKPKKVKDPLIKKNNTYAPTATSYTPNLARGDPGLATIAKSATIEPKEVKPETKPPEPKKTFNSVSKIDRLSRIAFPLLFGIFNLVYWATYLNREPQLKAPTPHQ

[30] = target: Sodium-dependent serotonin transporter (Homo sapiens) (UniProt P31645); assay: Activity against 5HTTRANS/HU in the Eurofins SafetyScreen44 (BI) by Radioactive Assay; details: Compound concentration 10.0 uM
[31] = target: 3',5'-cyclic-AMP phosphodiesterase 4A (Rattus norvegicus) (UniProt P54748); assay: Activity against ROLIPRAM/R in the Eurofins SafetyScreen44 (BI) by Radioligand Binding; details: Compound concentration 10.0 uM
[32] = target: Adenosine receptor A3 (Homo sapiens) (UniProt P0DMS8); assay: Activity against A3/H in the Eurofins SafetyScreen44 (BI); details: Compound concentration 10.0 uM
Chain of Adenosine receptor A3 (Homo sapiens) (P0DMS8 whole entry, canonical isoform): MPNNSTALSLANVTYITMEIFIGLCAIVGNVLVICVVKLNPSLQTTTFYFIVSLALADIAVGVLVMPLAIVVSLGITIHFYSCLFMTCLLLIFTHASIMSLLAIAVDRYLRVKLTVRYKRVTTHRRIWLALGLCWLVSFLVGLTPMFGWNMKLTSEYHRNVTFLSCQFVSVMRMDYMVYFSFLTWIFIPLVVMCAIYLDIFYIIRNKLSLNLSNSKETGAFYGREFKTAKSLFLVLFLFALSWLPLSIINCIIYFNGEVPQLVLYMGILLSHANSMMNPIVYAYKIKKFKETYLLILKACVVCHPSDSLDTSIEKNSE

[33] = target: ATP-sensitive inward rectifier potassium channel 1 isoform X1 (Mesocricetus auratus) (UniProt A0A1U8CU73); assay: Activity against K+/KATP/HA in the Eurofins SafetyScreen44 (BI) by Radioactive Assay; details: Cricetinae; Compound concentration 10.0 uM
Chain of ATP-sensitive inward rectifier potassium channel 1 isoform X1 (Mesocricetus auratus) (A0A1U8CU73 as listed by the source): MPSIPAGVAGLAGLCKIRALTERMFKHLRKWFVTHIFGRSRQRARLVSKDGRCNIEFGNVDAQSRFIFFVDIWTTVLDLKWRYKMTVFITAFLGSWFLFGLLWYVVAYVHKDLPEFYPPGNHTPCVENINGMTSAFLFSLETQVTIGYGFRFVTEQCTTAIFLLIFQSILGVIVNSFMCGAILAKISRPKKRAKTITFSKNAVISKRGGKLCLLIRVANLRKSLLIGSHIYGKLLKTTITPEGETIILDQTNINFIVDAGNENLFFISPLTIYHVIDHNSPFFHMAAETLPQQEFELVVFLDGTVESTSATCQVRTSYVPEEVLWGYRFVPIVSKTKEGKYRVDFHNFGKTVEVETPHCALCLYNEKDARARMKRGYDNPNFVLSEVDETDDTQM

[34] = target: Estrogen receptor (Homo sapiens) (UniProt P03372); assay: Activity against ERALPHA/H in the Eurofins SafetyScreen44 (BI) by Radioactive Assay; details: Compound concentration 10.0 uM
[35] = target: Gamma-aminobutyric acid receptor subunit alpha-1 (Rattus norvegicus) (UniProt P62813); assay: Activity against GABAACENTR in the Eurofins SafetyScreen44 (BI) by Radioactive Assay; details: Compound concentration 10.0 uM
[36] = target: Substance-P receptor (Homo sapiens) (UniProt P25103); assay: Activity against NK1/HU in the Eurofins SafetyScreen44 (BI) by Radioactive Assay; details: Compound concentration 10.0 uM

Chain of Adenosine receptor A2a (Homo sapiens) (P29274 whole entry): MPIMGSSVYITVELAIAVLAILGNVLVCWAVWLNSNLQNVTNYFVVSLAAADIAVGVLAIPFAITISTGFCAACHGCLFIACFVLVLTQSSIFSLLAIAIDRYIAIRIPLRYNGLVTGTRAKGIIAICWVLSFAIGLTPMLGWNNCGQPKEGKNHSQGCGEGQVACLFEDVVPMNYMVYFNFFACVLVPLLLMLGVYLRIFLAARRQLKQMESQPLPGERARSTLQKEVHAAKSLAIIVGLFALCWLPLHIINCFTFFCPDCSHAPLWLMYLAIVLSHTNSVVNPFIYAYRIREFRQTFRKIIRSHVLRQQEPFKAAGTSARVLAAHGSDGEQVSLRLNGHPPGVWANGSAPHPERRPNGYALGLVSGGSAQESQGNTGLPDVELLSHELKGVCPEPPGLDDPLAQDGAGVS

Which residual activity [1] does the source give for COc1cc(C)c(S(=O)(=O)N(C)CCOCC(=O)N(C)[C@H]2CCC[C@@H](N3CCN(C)CC3)C2)c(C)c1 here?
Its residual activity is 97%.

What about the residual activity [2] of the same molecule?
Its residual activity is 96%.

And the residual activity [3]?
The residual activity was 92%.

What about the residual activity [4] of the same molecule?
The residual activity was 85%.

What about the residual activity [5] of the same molecule?
The residual activity was 84%.

And the residual activity [6]?
The residual activity was 105%.

What about the residual activity [7] of the same molecule?
The residual activity was 104%.

And the residual activity [8]?
Its residual activity is 102%.

What about the residual activity [9] of the same molecule?
The residual activity was 91%.

What about the residual activity [10] of the same molecule?
The residual activity was 93%.

And the residual activity [11]?
Its residual activity is 61%.

What about the residual activity [12] of the same molecule?
Its residual activity is 93%.

What about the residual activity [13] of the same molecule?
Its residual activity is 45%.

What about the residual activity [14] of the same molecule?
Its residual activity is 86%.

And the residual activity [15]?
The residual activity was 105%.

And the residual activity [16]?
The residual activity was 103%.

What about the activity at 10 µM [17] of the same molecule?
Its activity at 10 µM is 86% (not active).

What about the residual activity [18] of the same molecule?
The residual activity was 86%.

And the residual activity [19]?
Its residual activity is 101%.

What about the residual activity [20] of the same molecule?
Its residual activity is 93%.

What about the residual activity [21] of the same molecule?
The residual activity was 30%.

And the residual activity [22]?
The residual activity was 87%.

And the residual activity [23]?
Its residual activity is 97%.

What about the residual activity [24] of the same molecule?
The residual activity was 96%.

And the residual activity [25]?
The residual activity was 97%.

And the residual activity [26]?
Its residual activity is 111%.

What about the residual activity [27] of the same molecule?
Its residual activity is 93%.

And the residual activity [28]?
Its residual activity is 85%.

And the residual activity [29]?
The residual activity was 101%.

What about the residual activity [30] of the same molecule?
Its residual activity is 108%.

And the residual activity [31]?
Its residual activity is 84%.

And the residual activity [32]?
Its residual activity is 101%.

What about the residual activity [33] of the same molecule?
The residual activity was 90%.

What about the residual activity [34] of the same molecule?
The residual activity was 104%.

And the residual activity [35]?
The residual activity was 96%.

What about the residual activity [36] of the same molecule?
Its residual activity is 109%.

Reference: ChEMBL document CHEMBL5723587, “Data for DCP probe BI-113823” (2024)
